Source: ChEMBL document CHEMBL1153477, “Synthesis and biological evaluation of 3,6-diamino-1H-pyrazolo[3,4-b]pyridine derivatives as protein kinase inhibitors” (Bioorg Med Chem Lett, 2009)

Columns and labels:
[1] = target: Dual specificity tyrosine-phosphorylation-regulated kinase 1A (Homo sapiens, UniProt Q13627); assay: Inhibition of human recombinant GST-fusion DYRK1A expressed in Escherichia coli
[2] = target: Cyclin-dependent kinase 5/CDK5 activator 1 (Homo sapiens, UniProt Q00535); assay: Inhibition of human recombinant CDK5/P25 by scintillation counting; type: protein-complex assay
Sequence of Cyclin-dependent kinase 5/CDK5 activator 1 (Q00535 whole entry): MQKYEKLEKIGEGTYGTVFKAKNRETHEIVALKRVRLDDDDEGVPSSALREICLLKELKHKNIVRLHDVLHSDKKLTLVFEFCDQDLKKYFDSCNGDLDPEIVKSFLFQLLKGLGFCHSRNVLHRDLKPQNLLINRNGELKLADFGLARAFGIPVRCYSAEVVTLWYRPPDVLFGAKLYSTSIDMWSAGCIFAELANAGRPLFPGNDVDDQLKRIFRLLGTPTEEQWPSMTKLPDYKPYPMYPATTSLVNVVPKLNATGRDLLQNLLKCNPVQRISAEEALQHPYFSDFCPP
Sequence of Cyclin-dependent kinase 5/CDK5 activator 1 (Q15078 whole entry, further chain): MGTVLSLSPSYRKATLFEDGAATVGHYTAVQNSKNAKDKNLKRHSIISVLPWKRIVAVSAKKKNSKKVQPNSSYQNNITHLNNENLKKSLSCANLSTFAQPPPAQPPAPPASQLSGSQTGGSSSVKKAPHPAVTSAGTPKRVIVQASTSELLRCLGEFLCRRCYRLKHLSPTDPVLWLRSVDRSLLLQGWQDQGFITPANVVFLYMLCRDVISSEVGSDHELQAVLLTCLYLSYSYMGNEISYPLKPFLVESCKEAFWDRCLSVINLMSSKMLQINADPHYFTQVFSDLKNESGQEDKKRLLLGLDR

[3] = target: Glycogen synthase kinase-3 (Sus scrofa, UniProt B2LUN4+I6LNT8); assay: Inhibition of pig GSK3alpha/beta

IC50 [1] [µM] | IC50 [2] [µM] | IC50 [3] [µM] | SMILES
> 10 | > 10 | > 10 | CC(=O)Nc1nc2[nH]nc(NC(C)=O)c2cc1C#N
> 10 | > 10 | > 10 | CC(=O)Nc1nn(C)c2nc(N)c(C#N)c(-c3ccccc3)c12
> 10 | > 10 | > 10 | Cn1nc(N)c2c(-c3ccccc3)c(C#N)c(N)nc21
> 10 | > 10 | > 10 | COc1nc(NNC(C)=O)c(C#N)c(-c2ccccc2)c1C#N
> 10 | > 10 | > 10 | N#Cc1c(N2CCOCC2)nc2[nH]nc(N)c2c1-c1ccccc1
> 10 | > 10 | > 10 | N#Cc1c(Cl)nc2[nH]nc(N)c2c1-c1ccccc1
> 10 | > 10 | > 10 | N#Cc1cc2c(N)n[nH]c2nc1N
> 10 | > 10 | > 10 | N#Cc1cc2c(N)n(-c3ccccc3)nc2nc1N
> 10 | > 10 | > 10 | CC(=O)Nc1nc2nn(-c3ccccc3)c(NC(C)=O)c2cc1C#N
> 10 | > 10 | > 10 | Cn1nc(N)c2cc(C#N)c(N)nc21
> 10 | > 10 | > 10 | CC(=O)Nc1nn(C)c2nc(N)c(C#N)cc12
> 10 | > 10 | > 10 | CC(=O)n1nc(N)c2c(-c3ccccc3)c(C#N)c(N)nc21
11 | 0.41 | 1.5 | N#Cc1c(N)nc2[nH]nc(N)c2c1-c1ccccc1
> 10 | > 10 | > 10 | COc1nc(NN)c(C#N)c(-c2ccccc2)c1C#N
